Results taken from PMC7891422, “Tryptophan Analogues with Fixed Side‐Chain Orientation: Expanding the Scope” (Chembiochem, 2020).
pEC50: −log10 of the molar value.

Biological target: T1, ghrelin receptor (Homo sapiens, UniProt Q92847)
T1 construct: expressed in transfected cells; host or cells: COS7 cells (stably transfected)
Test: IP‐One assay (Cisbio IP-One Gq kit), inverse agonist activity
Format: cell-based
Details: mean±SEM of at least two independent experiments
Description: The four peptides and two known inverse agonists were tested towards their activity on the ghrelin receptor that was stably transfected in COS7 cells and examined in the Cisbio IP‐One assay as described in the supplementary section.
The assay was carried out in COS7 cells that were stably transfected with the ghrelin receptor. Data are the mean ±SEM of at least two independent experiments performed in triplicate.
IP-One assay COS7 cells stably transfected with the ghrelin receptor fused C-terminally to eYFP were cultured in a humidified atmosphere at 37 °C and 5% CO2 in Dulbecco's modified Eagle's medium with higher glucose supplemented with 10% (v/v) FCS and 0.4 mg/ml hygromycin B. Cisbio IP-One Gq assay kit was used according to previous description.[4] Shortly, 10000 cells/well were seeded out in a 384-well flat white plate and on the next day, stimulation was carried out in triplicates for 3h. 3 µl IP1-d2 and 3 µl Ab-cryptate were added and incubated on a tumbler for 60 min. Fluorescence was measured at 620 nm and 665 nm. HTRF ratio was calculated as the ratio 665/620. Obtained data were analyzed with GraphPad Prism 5.0 (GraphPad Software, San Diego, USA)
Emax is the efficacy of the peptide and represents the difference between constitutive activity and activity at maximal effect of the peptide. EC50 is the peptide concentration at half-

T1 sequence (Q92847 whole entry, species assumed): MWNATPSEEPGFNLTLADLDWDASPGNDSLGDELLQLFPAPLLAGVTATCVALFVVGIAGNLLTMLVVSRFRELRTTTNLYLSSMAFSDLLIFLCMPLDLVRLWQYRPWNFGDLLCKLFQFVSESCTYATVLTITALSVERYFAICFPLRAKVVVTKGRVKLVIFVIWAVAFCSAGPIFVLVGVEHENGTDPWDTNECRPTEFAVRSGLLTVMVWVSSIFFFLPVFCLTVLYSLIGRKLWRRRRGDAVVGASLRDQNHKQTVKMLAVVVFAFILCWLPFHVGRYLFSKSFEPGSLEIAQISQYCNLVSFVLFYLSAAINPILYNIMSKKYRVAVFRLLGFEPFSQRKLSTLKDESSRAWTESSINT

Question: With CC(C)C[C@H](NC(=O)[C@H](CC(C)C)NC(=O)[C@@H](Cc1c[nH]c2ccccc12)NC(=O)[C@H](Cc1ccccc1)NC(=O)[C@@H](Cc1c[nH]c2ccccc12)NC(=O)[C@@H](N)CCCCN)C(N)=O [Peptide 4, KwFwLL‐NH2] as the compound, how does the “E max±SEM” value (efficacy = difference between constitutive activity and activity at maximal effect, normalized to KbFwLL‐NH2 (3)) read?
Answer: Its value is 66±3 Δ%.

Question: And the pEC50 (inverse agonism, COS7 cells stably transfected with ghrelin receptor-eYFP, 3 h stimulation)?
Answer: Its pEC50 is 6.63.
